In one series the test system is Zymoseptoria tritici. The series can be described thus: Test A: wheat leaf blotch, preventive spray on wheat seedlings. Type of series: in vivo. To be noted: Zymoseptoria tritici, 50 ppm, 100 = 100% disease control, 0 = no control, read-out: Test A disease control rating. The method in brief:
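Wheat seedlings were sprayed to run-off with compound in acetone/water 50/50 containing 250 ppm PEG400 and inoculated with Z. tritici spores the next day. Plants were held 48 h saturated at 24 °C, then 17 days at 20 °C. Disease was rated 0–100% control relative to controls.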

In series [1] the test system is Puccinia recondita f. sp. tritici. As to the kind of experiment: Test B: wheat leaf rust, preventive spray on wheat seedlings. The series is classed as in vivo. The following applies: Puccinia recondita, 50 ppm, 100 = 100% disease control, 0 = no control, read-out: Test B disease control rating. The method in brief:
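Wheat seedlings sprayed to run-off with compound suspended at set ppm in 50/50 acetone/water (3% acetone pre-dissolution, 250 ppm PEG400); inoculated with rust spores next day. Held 24 h saturated at 20° C., then 7 days in growth chamber at 20° C.; visual rating, 0–100% disease control versus controls.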

In series [2] the test system is Blumeria graminis f. sp. tritici. The series can be described thus: Test C: wheat powdery mildew, preventive spray on wheat seedlings. Type of series: in vivo. The following applies: Blumeria graminis, 50 ppm, 100 = 100% disease control, 0 = no control, read-out: Test C disease control rating. Summed up: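 Preventive assay: wheat seedlings sprayed to run-off with compound at the stated ppm (acetone/water 50/50, 250 ppm PEG400), dusted with B. graminis f. sp. tritici spores the following day, then kept 8 days at 20°C. Disease control visually scored 0-100 versus controls.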

A further series deals with Phakopsora pachyrhizi. The series can be described thus: Test D: Asian soybean rust, preventive spray on soybean seedlings. The following applies: Phakopsora pachyrhizi, 216 h, 50 ppm, 100 = 100% disease control, 0 = no control, read-out: Test D disease control rating. Type of series: in vivo. The method in brief: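 Soybean seedlings sprayed to run-off with compound suspension (ppm, in 50/50 acetone/water with 250 ppm PEG400), inoculated next day with P. pachyrhizi spores, held 24 h saturated at 22°C then 8 days at 22°C. Visual rating 0-100% disease control relative to controls.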

For a further series, the system named is Botrytis cinerea. As to the kind of experiment: Test E: tomato Botrytis, preventive spray on tomato seedlings. Type of series: in vivo. To be noted: Botrytis cinerea, 50 ppm, 100 = 100% disease control, 0 = no control, read-out: Test E disease control rating. Summed up:
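Compounds dissolved in acetone (3% of final volume), suspended in 50/50 acetone/water with 250 ppm PEG400, sprayed to run-off on seedlings. Spore inoculation next day; 48 h saturated atmosphere at 20° C, then 3 days at 24° C. Visual disease rating 0–100% control relative to controls.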

The test system of another series is Alternaria solani. The series can be described thus: Test F: tomato early blight, preventive spray on tomato seedlings. The following applies: Alternaria solani, 50 ppm, 100 = 100% disease control, 0 = no control, read-out: Test F disease control rating. The series is classed as in vivo. The method in brief:
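Compounds in acetone/water (50/50) with 250 ppm PEG400 were sprayed to run-off on tomato seedlings and inoculated with Alternaria solani spores the next day. Plants were held in saturated humidity at 27° C for 48 h, then at 20° C for 3 days. Disease control was rated visually, 0–100, against controls.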

Experimental findings from patent US20240215577A1, “FUNGICIDAL PYRIDONES” (FMC Corporation, priority 2021, published 2024) are described below.

Usually melting point stands for the temperature, or range, at which the solid turns liquid.

For `COc1cc(OC)c(Cl)c(-c2cn(C)c(=O)c(C)c2-c2ccc(F)cc2Cl)c1` [Compound 13, 5-(2-chloro-3,5-dimethoxyphenyl)-4-(2-chloro-4-fluorophenyl)-1,3-dimethyl-2(1H)-pyridinone], the melting point was in the range of 140 to 143 °C. Also, the pest or weed control at 50 ppm in the series on Zymoseptoria tritici came to 100%. For the same molecule, the pest or weed control at 50 ppm in series [1] was 100%. In addition, the pest or weed control at 50 ppm in series [2] worked out at 100%. The pest or weed control at 50 ppm in the series with Phakopsora pachyrhizi was found to be 100%. Moreover, the pest or weed control at 50 ppm in the series on Botrytis cinerea is 94%. Moreover, the pest or weed control at 50 ppm in the series on Alternaria solani was 100%.
`COc1cc(OC)c(Br)c(-c2cn(C)c(=O)c(Cl)c2-c2ccc(F)cc2F)c1` [Compound 9, 5-(2-bromo-3,5-dimethoxyphenyl)-3-chloro-4-(2,4-difluorophenyl)-1-methyl-2(1H)-pyridinone] came in with a melting point of 211 to 214 °C. Moreover, in the series on Zymoseptoria tritici, the pest or weed control at 50 ppm turned out to be 100%. Moreover, the pest or weed control at 50 ppm in series [1] is 100%. The pest or weed control at 50 ppm in series [2] was determined as 99%. Also, the pest or weed control at 50 ppm in the series with Phakopsora pachyrhizi stood at 100%. Besides, the pest or weed control at 50 ppm in the series on Botrytis cinerea amounted to 98%. Moreover, in the series on Alternaria solani, the pest or weed control at 50 ppm was 100%.
Turning to `COc1ccc(Cl)c(-c2cn(C)c(=O)c(Cl)c2-c2ccc(F)cc2F)c1` [Compound 30, 3-chloro-5-(2-chloro-5-methoxyphenyl)-4-(2,4-difluorophenyl)-1-methyl-2(1H)-pyridinone], the melting point lay within 192 to 195 °C. The pest or weed control at 50 ppm in the series on Zymoseptoria tritici is 100%. In series [1], the pest or weed control at 50 ppm stood at 100%. The pest or weed control at 50 ppm in series [2] turned out to be 100%. Also, in the series on Phakopsora pachyrhizi, the pest or weed control at 50 ppm was 100%. Besides, the pest or weed control at 50 ppm in the series with Botrytis cinerea was 94%. The pest or weed control at 50 ppm with Alternaria solani was 99%.
`COc1cc(OC)c(Cl)c(-c2cn(C)c(=O)c(Cl)c2-c2ccc(F)cc2F)c1` [Compound 29, 3-chloro-5-(2-chloro-3,5-dimethoxyphenyl)-4-(2,4-difluorophenyl)-1-methyl-2(1H)-pyridinone] yielded a melting point of 189 to 192 °C. The pest or weed control at 50 ppm in the series on Zymoseptoria tritici turned out to be 100%. In addition, the pest or weed control at 50 ppm in series [1] worked out at 100%. For the same molecule, the pest or weed control at 50 ppm in series [2] is 99%. The pest or weed control at 50 ppm in the series with Phakopsora pachyrhizi amounted to 100%. Also, the pest or weed control at 50 ppm in the series on Botrytis cinerea worked out at 94%. Besides, the pest or weed control at 50 ppm in the series with Alternaria solani is 99%.
As to `COc1cc(OC)c(F)c(-c2cn(C)c(=O)c(Cl)c2-c2ccc(F)cc2F)c1` [Compound 51, 3-chloro-4-(2,4-difluorophenyl)-5-(2-fluoro-3,5-dimethoxyphenyl)-1-methyl-2(1H)-pyridinone], the melting point is 155 to 158 °C. For the same molecule, the pest or weed control at 50 ppm with Zymoseptoria tritici was 100%. Also, the pest or weed control at 50 ppm in series [1] came out at 100%. Besides, the pest or weed control at 50 ppm in series [2] worked out at 98%. Moreover, the pest or weed control at 50 ppm with Phakopsora pachyrhizi amounted to 99%. Besides, in the series with Botrytis cinerea, the pest or weed control at 50 ppm was 98%. Moreover, in the series with Alternaria solani, the pest or weed control at 50 ppm came to 100%.
